This is an account of results in US12516064B2, “Tetrahydropyridopyrimidines and related analogs for inhibiting YAP/TAZ-TEAD” (THE KATHOLIEKE UNIVERSITEIT LEUVEN, priority 2022, dated 2026).

The test system of this assay is YAP/TAZ-TEAD transcription. Kind of assay: Reporter gene assay for measuring the inhibition of YAP/TAZ-TEAD transcription. The assay is classed as cell-based. The note with it: Homo sapiens, HEK-293T; Hek293T cells transiently transfected with TEAD-responsive element luciferase reporter; 24 hours incubation. Here is the method: Hek293T cells are cultured in DMEM supplemented with 10% fetal bovine serum, Sodium pyruvate, Sodium bicarbonate, L-glutamine. The cells are harvested and transiently transfected with TEAD-responsive element luciferase reporter. Transfected cells are plated in 384-wells plate containing pre-diluted compounds. After 24 hours incubation at 37° C./5% CO2, assay plates were cooled down to RT and levelled to an equal volume per well, prior to the addition of 25 uL luciferase substrate SteadyLite (Perkin Elmer)/well. The plate was shaken for 10 min at 600 rpm, centrifuged for 1 min at 500 rpm and measured with an Envision reader (PerkinElmer). The amount of relative light units produced by the TEAD reporter is used to calculated percent of inhibition.
The percent of reporter inhibition was calculated in the presence of a positive control inhibitor (100% inhibition) versus a condition with the presence of the vehicle basal activity of the reporter (0% inhibition). The ability of a test compound to inhibit this activity was determined as: Percentage inhibition=[1−((RLU determined in the presence of vehicle−RLU determined for sample with test compound present) divided by (RLU determined in the presence of vehicle−RLU determined for sample with positive control inhibitor))]*100 The activities of example compounds tested are depicted in Table 8. The activity ranges A, B and C refer to IC50 values in the reporter gene assay as follows: “A”: EC50<1 μM; “B”: 1 μM≤EC50≤3.0 μM and “C”: EC50>3.0 μM, NT=not tested.
(In general: Reporter assays use an easily measured gene product as a stand-in for the process of interest.)

Compound `CCC(=O)N1CCc2c(nc(Cc3cccc(C(F)(F)F)c3)nc2-c2ccn(C)n2)C1` [Cpd. No. 48, 1-(4-(1-methyl-1H-pyrazol-3-yl)-2-(3-(trifluoromethyl)benzyl)-5,8-dihydropyrido[3,4-d]pyrimidin-7(6H)-yl)propan-1-one] yielded a concentration giving a half-maximal response (EC50) of 1 to 3 µM.
Compound `CS(=O)(=O)N1Cc2nc(Cc3ccccc3)nc(-c3ccn(Cc4cccnc4)n3)c2C1` [Cpd. No. 19, 2-benzyl-6-(methylsulfonyl)-4-(1-(pyridin-3-ylmethyl)-1H-pyrazol-3-yl)-6,7-dihydro-5H-pyrrolo[3,4-d]pyrimidine] returned an EC50 of 1 to 3 µM.
The value for `C=CC(=O)N1CCc2c(nc(-c3ccc(C(F)(F)F)cc3)nc2-c2nnnn2C)C1` [Cpd. No. 82, 1-(4-(1-methyl-1H-tetrazol-5-yl)-2-(4-(trifluoromethyl)phenyl)-5,8-dihydropyrido[3,4-d]pyrimidin-7(6H)-yl)prop-2-en-1-one] was below 1 µM; that for `C=CC(=O)N1CCc2c(nc(-c3ccccc3)nc2C(=O)NCc2cccnc2)C1` [Cpd. No. 58, 7-acryloyl-2-phenyl-N-(pyridin-3-ylmethyl)-5,6,7,8-tetrahydropyrido[3,4-d]pyrimidine-4-carboxamide] was 1 to 3 µM.
For `CCC(=O)NC1CCc2c(nc(-c3ccccc3)nc2-c2ccn(Cc3cccnc3)n2)C1` (stereo not drawn) [Cpd. No. 12, N-(2-phenyl-4-(1-(pyridin-3-ylmethyl)-1H-pyrazol-3-yl)-5,6,7,8-tetrahydroquinazolin-7-yl)propionamide], the concentration giving a half-maximal response (EC50) was above 3 µM.
On to `O=S(=O)(F)CCN1Cc2nc(Cc3ccccc3)nc(-c3ccn(Cc4cccnc4)n3)c2C1` [Cpd. No. 30, 2-(2-benzyl-4-(1-(pyridin-3-ylmethyl)-1H-pyrazol-3-yl)-5,7-dihydro-6H-pyrrolo[3,4-d]pyrimidin-6-yl)ethane-1-sulfonyl fluoride], for which the concentration giving a half-maximal response (EC50) was above 3 µM.
Under `CCC(=O)N1CCc2c(nc(-c3ccccc3)nc2-c2ccn(C)n2)C1` [Cpd. No. 40, 1-(4-(1-methyl-1H-pyrazol-3-yl)-2-phenyl-5,8-dihydropyrido[3,4-d]pyrimidin-7(6H)-yl)propan-1-one] stands 1 to 3 µM; under `C=CC(=O)NC1CCc2c(nc(-c3ccccc3)nc2-c2ccn(Cc3cccnc3)n2)C1` (stereo not drawn) [Cpd. No. 11, N-(2-phenyl-4-(1-(pyridin-3-ylmethyl)-1H-pyrazol-3-yl)-5,6,7,8-tetrahydroquinazolin-7-yl)acrylamide], 1 to 3 µM; under `Cn1ccc(-c2nc(-c3ccccc3)nc3c2CC(N)CC3)n1` (stereo not drawn) [Cpd. No. 1, 4-(1-methyl-1H-pyrazol-3-yl)-2-phenyl-5,6,7,8-tetrahydroquinazolin-6-amine], above 3 µM.
`C=CC(=O)N1CCc2c(nc(-c3ccccc3)nc2-c2ccncc2)C1` [Cpd. No. 66, 1-(2-phenyl-4-(pyridin-4-yl)-5,8-dihydropyrido[3,4-d]pyrimidin-7(6H)-yl)prop-2-en-1-one] returned an EC50 of 1 to 3 µM.
For the compound `Cn1ccc(-c2nc(-c3ccc(C(F)(F)F)cc3)nc3c2CCN(C(=O)CC#N)C3)n1` [Cpd. No. 75, 3-(4-(1-methyl-1H-pyrazol-3-yl)-2-(4-(trifluoromethyl)phenyl)-5,8-dihydropyrido[3,4-d]pyrimidin-7(6H)-yl)-3-oxopropanenitrile], the EC50 was in the range of 1 to 3 µM.
As to `Cn1ccc(-c2nc(Cc3ccccc3)nc3c2CCN(S(C)(=O)=O)C3)n1` [Cpd. No. 34, 2-benzyl-4-(1-methyl-1H-pyrazol-3-yl)-7-(methylsulfonyl)-5,6,7,8-tetrahydropyrido[3,4-d]pyrimidine], the EC50 was above 3 µM.
Turning to `C=CC(=O)N1CCc2c(nc(-c3ccccc3)nc2-c2ccccc2)C1` [Cpd. No. 64, 1-(2,4-diphenyl-5,8-dihydropyrido[3,4-d]pyrimidin-7(6H)-yl)prop-2-en-1-one], the EC50 is below 1 µM.
For the compound `CCC(=O)N1Cc2nc(Cc3ccccc3)nc(-c3ccn(C)n3)c2C1` [Cpd. No. 21, 1-(2-benzyl-4-(1-methyl-1H-pyrazol-3-yl)-5,7-dihydro-6H-pyrrolo[3,4-d]pyrimidin-6-yl)propan-1-one], the EC50 lay in the range of 1 to 3 µM.
The compound `Cn1ccc(-c2nc(-c3ccccc3)nc3c2CN(S(C)(=O)=O)C3)n1` [Cpd. No. 16, 4-(1-methyl-1H-pyrazol-3-yl)-6-(methylsulfonyl)-2-phenyl-6,7-dihydro-5H-pyrrolo[3,4-d]pyrimidine] registered an EC50 above 3 µM.
For the compound `CCC(=O)N1CCc2c(nc(-c3ccc(C(F)(F)F)cc3)nc2-c2cnn(C)n2)C1` [Cpd. No. 93, 1-(4-(2-methyl-2H-1,2,3-triazol-4-yl)-2-(4-(trifluoromethyl)phenyl)-5,8-dihydropyrido[3,4-d]pyrimidin-7(6H)-yl)propan-1-one], the EC50 was in the range of 1 to 3 µM.
`C=CC(=O)N1CCc2c(nc(-c3ccccc3)nc2-c2ccn(CC)n2)C1` [Cpd. No. 59, 1-(4-(1-ethyl-1H-pyrazol-3-yl)-2-phenyl-5,8-dihydropyrido[3,4-d]pyrimidin-7(6H)-yl)prop-2-en-1-one]: the EC50 was below 1 µM.
The value for `CS(=O)(=O)NCC(=O)N1Cc2nc(Cc3ccccc3)nc(-c3ccn(Cc4cccnc4)n3)c2C1` [Cpd. No. 28, N-(2-(2-benzyl-4-(1-(pyridin-3-ylmethyl)-1H-pyrazol-3-yl)-5,7-dihydro-6H-pyrrolo[3,4-d]pyrimidin-6-yl)-2-oxoethyl)methanesulfonamide] was above 3 µM; that for `CCC(=O)NC1CCc2c(nc(-c3ccccc3)nc2-c2ccn(C)n2)C1` (stereo not drawn) [Cpd. No. 7, N-(4-(1-methyl-1H-pyrazol-3-yl)-2-phenyl-5,6,7,8-tetrahydroquinazolin-7-yl)propionamide] was above 3 µM.
In turn, `CCC(=O)N1Cc2nc(Cc3ccccc3)nc(-c3ccn(Cc4cccnc4)n3)c2C1` [Cpd. No. 18, 1-(2-benzyl-4-(1-(pyridin-3-ylmethyl)-1H-pyrazol-3-yl)-5,7-dihydro-6H-pyrrolo[3,4-d]pyrimidin-6-yl)propan-1-one] had an EC50 of 1 to 3 µM.
In turn, `CCC(=O)N1CCc2c(nc(Cc3ccc(C(F)(F)F)cc3)nc2-c2ccn(C)n2)C1` [Cpd. No. 47, 1-(4-(1-methyl-1H-pyrazol-3-yl)-2-(4-(trifluoromethyl)benzyl)-5,8-dihydropyrido[3,4-d]pyrimidin-7(6H)-yl)propan-1-one] yielded an EC50 above 3 µM.
For `C/C=C/C(=O)N1CCc2c(nc(C3CCC(F)(F)CC3)nc2-c2ccn(C)n2)C1` [Cpd. No. 95, (E)-1-(2-(4,4-difluorocyclohexyl)-4-(1-methyl-1H-pyrazol-3-yl)-5,8-dihydropyrido[3,4-d]pyrimidin-7(6H)-yl)but-2-en-1-one], the EC50 was below 1 µM.
`CCC(=O)N1CCc2c(nc(Cc3cccc(F)c3)nc2-c2ccn(C)n2)C1` [Cpd. No. 44, 1-(2-(3-fluorobenzyl)-4-(1-methyl-1H-pyrazol-3-yl)-5,8-dihydropyrido[3,4-d]pyrimidin-7(6H)-yl)propan-1-one] yielded a concentration giving a half-maximal response (EC50) above 3 µM.
The compound `C=CC(=O)N1CCc2c(nc(Cc3cccc(C(F)(F)F)c3)nc2-c2ccn(Cc3cccnc3)n2)C1` [Cpd. No. 50, 1-(4-(1-(pyridin-3-ylmethyl)-1H-pyrazol-3-yl)-2-(3-(trifluoromethyl)benzyl)-5,8-dihydropyrido[3,4-d]pyrimidin-7(6H)-yl)prop-2-en-1-one] showed an EC50 below 1 µM.
As for `CCC(=O)N1CCc2c(nc(-c3ccc(C(F)(F)F)cc3)nc2-c2ccn(C)n2)C1` [Cpd. No. 85, 1-(4-(1-methyl-1H-pyrazol-3-yl)-2-(4-(trifluoromethyl)phenyl)-5,8-dihydropyrido[3,4-d]pyrimidin-7(6H)-yl)propan-1-one], the EC50 is below 1 µM.
For `CC(=O)NCC(=O)N1Cc2nc(Cc3ccccc3)nc(-c3ccn(Cc4cccnc4)n3)c2C1` [Cpd. No. 27, N-(2-(2-benzyl-4-(1-(pyridin-3-ylmethyl)-1H-pyrazol-3-yl)-5,7-dihydro-6H-pyrrolo[3,4-d]pyrimidin-6-yl)-2-oxoethyl)acetamide], the concentration giving a half-maximal response (EC50) is above 3 µM.
Turning to `C=CC(=O)N1Cc2nc(-c3ccccc3)nc(-c3ccn(Cc4cccnc4)n3)c2C1` [Cpd. No. 23, 1-(2-phenyl-4-(1-(pyridin-3-ylmethyl)-1H-pyrazol-3-yl)-5,7-dihydro-6H-pyrrolo[3,4-d]pyrimidin-6-yl)prop-2-en-1-one], the EC50 was below 1 µM.
Under `C=CC(=O)N1CCc2c(-c3ccn(C)n3)nc(-c3ccc(C(F)(F)F)cc3)nc2C1C` (stereo not drawn) [Cpd. No. 76, 1-(8-methyl-4-(1-methyl-1H-pyrazol-3-yl)-2-(4-(trifluoromethyl)phenyl)-5,8-dihydropyrido[3,4-d]pyrimidin-7(6H)-yl)prop-2-en-1-one] stands below 1 µM; under `C=CC(=O)N1CCc2c(nc(-c3ccccc3)nc2-c2ccccn2)C1` [Cpd. No. 67, 1-(2-phenyl-4-(pyridin-2-yl)-5,8-dihydropyrido[3,4-d]pyrimidin-7(6H)-yl)prop-2-en-1-one], below 1 µM; under `C=CC(=O)N1Cc2nc(-c3ccccc3)nc(-c3ccn(C)n3)c2C1` [Cpd. No. 14, 1-(4-(1-methyl-1H-pyrazol-3-yl)-2-phenyl-5,7-dihydro-6H-pyrrolo[3,4-d]pyrimidin-6-yl)prop-2-en-1-one], below 1 µM.

As a reminder, the EC50 is the concentration that produces a half-maximal response. Low readings indicate an effect from little substance, high ones a need for much substance.
